These results are taken from patent US20250333442A1, “NOVEL CELL-PERMEABLE PEPTIDE AND USE THEREOF” (AJOU UNIVERSITY INDUSTRY-ACADEMIC COOPERATION FOUNDATION, priority 2021, published 2025).

For one assay, the system named is peritoneal macrophages. Nature of the assay: Peritoneal macrophage permeability by confocal microscopy. The format is cell-based. Conditions: 1 μg/mL fluorescent-labeled peptide, ICR mouse peritoneal macrophages, culture times 1, 4 and 24 hours. How it is done: To determine the cell permeability of F1 peptides, 1 μg/mL of fluorescent-labeled F1 and F2 peptides was treated to cultures of peritoneal macrophages isolated from 4-week-old ICR mice, followed by culture for 24 hours. Afterwards, intracellular fluorescence expression over culture times (1, 4 and 24 hours) was observed by confocal microscopy.

The subject of assay [1] is splenocytes. Nature of the assay: Splenocyte permeability by confocal microscopy. The conditions noted are these: 1 μg/mL fluorescent-labeled peptide, ICR mouse splenocytes, culture times 1, 4 and 24 hours. It is filed as cell-based. How it is done: To determine the cell permeability of F1 peptides, 1 μg/mL of fluorescent-labeled F1 and F2 peptides were treated to cultures of splenocytes isolated from 4-week-old ICR mice, followed by culture for 24 hours. Afterwards, intracellular fluorescence expression over culture times (1, 4 and 24 hours) was observed by confocal microscopy. The untreated group with no peptide treatment involved was used as a control, alongside with a GFP peptide ([…]) treated group without cell permeability and a scramble D treated group (negative control).

A further assay deals with skin (epidermis) tissues. Nature of the assay: Skin tissue permeability by confocal microscopy. The format is in vivo, mouse. The conditions noted are these: for fluorescence expression in tissues: 1 μg/mL applied to mouse leg skin with cotton swab, cryosection; for difference in fluorescence expression with or without scratches: normal versus needle-scratched skin, 1 μg/mL, 1˜2 hours. How it is done: To identify the skin tissue permeability of the F1 peptide, the left leg of 4-week-old ICR mice was left unscratched, and the right leg was scratched with a needle. Afterwards, 1 μg/mL of fluorescent-labeled F1 and F2 peptides was applied to both legs with cotton swabs respectively, and after 1˜2 hours, skin (epidermis) tissues were collected, cryosectioned, and observed under confocal microscopy.

A further assay has as its system lymph node cells. Nature of the assay: Cell permeability via flow cytometry, lymph node cells. Conditions: for positive cell frequency (of entire cells): 1 μg/mL. It is filed as cell-based, mouse. The protocol:
(§1) To determine whether the F1 peptide has entered the cell by penetrating the plasma membrane, splenocytes and lymph node cells were isolated from 4-week-old ICR mice, cultured for 1 hour, treated with 1 μg/mL of fluorescent-labeled F1 and F2 peptides, respectively, and then cultured for 48 hours. Flow cytometry was then used to analyze a frequency of fluorescent-labeled cells over culture time (1, 4, 24, and 48 hours) to determine the frequency of cells into which the peptide moved.

Assay [2] concerns splenocytes. Nature of the assay: Cell permeability of peptides with SEQ ID NOS: 22 to 30 via flow cytometry. The format is cell-based, mouse. The conditions noted are these: splenocytes of 8-week-old ICR mice, 1 μg/mL, 24 and 48 hours. The protocol:
To determine whether the F1 peptide enables penetration into cells even if a peptide without cell permeability is linked in the middle of any amino acid sequence, splenocytes were isolated from ICR 8-week-old mice and cultured for 1 hour. Afterwards, 1 μg/mL of fluorescent-labeled peptides (SEQ ID NOS: 22 to 30) was treated to cells respectively, followed by culture for 48 hours. Afterwards, flow cytometry was used to analyze the frequency of fluorescent-labeled cells over the culture time (24 and 48 hours) to determine the frequency of cells into which the peptide moved. […] A total of 4 mice were used, with the number of mice per experimental group (Group) set to 2 and the experiment repeated twice.

Assay [3] has as its system splenocytes. Nature of the assay: Cell permeability via flow cytometry, splenocytes. It is filed as cell-based, mouse. The conditions noted are these: culture times 1, 4, 24 and 48 hours. How it is done:
as §1

The mark [4] stands for this setting: tissue collected after 1˜2 hours, confocal microscopy.

For GCCGEIV [Peptide F1], the values for the intracellular fluorescence expression entry in the assay on peritoneal macrophages and with splenocytes [1] were “showed fluorescence expression in peritoneal macrophages” and “showed fluorescence expression in splenocytes”, respectively. The “fluorescence expression in tissues” value in the assay on skin (epidermis) tissues (setting [4]) was “showed fluorescence expression in tissues”. Further, the “difference in fluorescence expression with or without scratches” value in the assay with skin (epidermis) tissues is listed as “no significant difference”. Also, in the assay on lymph node cells (over 4 hours), the “positive cell frequency (of entire cells)” value was “about 40%”.

With GCCGEIVDDDDDDDD [Peptide F1D8], in the assay with splenocytes [2], the “degree of penetration of the D peptide into the cell compared with R8D control” value is on record as “superior to that of the R8 peptide” and the “penetration of the DDDDDDDD peptide inside the cell compared with cTATD control” value was “at a level similar to that of the cTAT peptide”.

With GCDDDDDDDDCGEIV [Peptide F2], the intracellular fluorescence expression entry was “showed fluorescence expression in peritoneal macrophages” in the assay on peritoneal macrophages and “showed fluorescence expression in splenocytes” in the assay with splenocytes [1]. The “fluorescence expression in tissues” value in the assay with skin (epidermis) tissues (setting [4]) is recorded as “showed fluorescence expression in tissues”. For the same substance, the “fluorescence expression in hair follicles” value in the assay on skin (epidermis) tissues (1 μg/mL applied to mouse leg skin, tissue collected after 1˜2 hours, confocal microscopy) is “strong fluorescence expression especially in hair follicles”. Besides, in the assay with skin (epidermis) tissues, the “difference in fluorescence expression with or without scratches” value is “no significant difference”. The “positive cell frequency (of entire cells)” value in the assay on lymph node cells (over 48 hours) was “about 60%”.

Take “HKFSVSGEGEGDATC [GFP peptide, GFP peptide without cell permeability, used as control, reference compound]”: the intracellular fluorescence expression result is “intracellular fluorescence expression was not observed” in the assay with lymph node cells (culture times 1, 4, 24 and 48 hours); “intracellular fluorescence expression was not observed” in the assay with splenocytes [3].
